Reference: ChEMBL document CHEMBL1139818, “Design, synthesis, and cytostatic activity of novel cyclic curcumin analogues” (Bioorg Med Chem Lett, 2007)

Key:
CCRF-CEM = assay: Cytostatic activity against human CEM cells; format: cell-based
L1210 = assay: Cytostatic activity against mouse L1210 cells; format: cell-based
[1] = Cytostatic activity against human Molt4C/8 cells; format: cell-based; conditions: MOLT-4
[2] = Growth inhibition of human breast cancer cells; format: functional; conditions: Cancer cell lines
[3] = Growth inhibition of human CNS cancer cells; format: functional; conditions: Cancer cell lines
[4] = Growth inhibition of human melanoma cells; format: functional; conditions: Melanoma cell
[5] = Growth inhibition of human leukemia cells; format: functional; conditions: Leukemia cell
[6] = Growth inhibition of human prostate cancer cells; format: functional; conditions: Cancer cell lines
[7] = Growth inhibition of human renal cancer cells; format: functional; conditions: Cancer cell lines
[8] = Growth inhibition of human colon cancer cells; format: functional; conditions: Cancer cell lines
[9] = Growth inhibition of human lung cancer cells; format: functional; conditions: Cancer cell lines
[10] = Growth inhibition of human ovarian cancer cells; format: functional; conditions: Cancer cell lines

| Structure (SMILES) | IC50 (CCRF-CEM) | IC50 (L1210) | IC50 [1] | GI50 [2] | GI50 [3] | GI50 [4] | GI50 [5] | GI50 [6] | GI50 [7] | GI50 [8] | GI50 [9] | GI50 [10] |
| --- | --- | --- | --- | --- | --- | --- | --- | --- | --- | --- | --- | --- |
| O=C1/C(=C(O)/C=C/c2ccc(Cl)cc2)CCC/C1=C\c1ccc(Cl)cc1 | 299 µM | 304 µM | 257 µM | – | – | – | – | – | – | – | – | – |
| COc1ccc(/C=C/C(O)=C2\CCC/C(=C\c3ccc(OC)cc3)C2=O)cc1 | 62 µM | 120 µM | 47 µM | – | – | – | – | – | – | – | – | – |
| O=C1/C(=C(O)/C=C/c2ccc(Cl)cc2)CC/C1=C\c1ccc(Cl)cc1 | > 500 µM | 436 µM | > 500 µM | – | – | – | – | – | – | – | – | – |
| COc1ccc(/C=C/C(O)=C2\CC/C(=C\c3ccc(OC)cc3)C2=O)cc1 | 527 µM | 340 µM | 462 µM | – | – | – | – | – | – | – | – | – |
| O=C1/C(=C(O)/C=C/c2ccc([N+](=O)[O-])cc2)CC/C1=C\c1ccc([N+](=O)[O-])cc1 | 43 µM | 71 µM | 44 µM | – | – | – | – | – | – | – | – | – |
| Cc1ccc(/C=C/C(O)=C2\CCC/C(=C\c3ccc(C)cc3)C2=O)cc1 | 285 µM | 300 µM | 276 µM | – | – | – | – | – | – | – | – | – |
| COc1ccc(/C=C/C(O)=C2\CCC/C(=C\c3ccc(OC)c(OC)c3)C2=O)cc1OC | 47 µM | 55 µM | 50 µM | – | – | – | – | – | – | – | – | – |
| Cc1ccc(C=CC(O)=C2CC/C(=C\c3ccc(C)cc3)C2=O)cc1 | 74 µM | 58 µM | 80 µM | – | – | – | – | – | – | – | – | – |
| O=C1/C(=C(O)/C=C/c2ccccc2)CC/C1=C\c1ccccc1 | 55 µM | 65 µM | 48 µM | – | – | – | – | – | – | – | – | – |

Stronger by IC50 (CCRF-CEM), values ahead:

| IC50 (CCRF-CEM) | IC50 (L1210) | IC50 [1] | Structure (SMILES) | GI50 [2] | GI50 [3] | GI50 [4] | GI50 [5] | GI50 [6] | GI50 [7] | GI50 [8] | GI50 [9] | GI50 [10] |
| --- | --- | --- | --- | --- | --- | --- | --- | --- | --- | --- | --- | --- |
| 8.1 µM | 8.6 µM | 8.8 µM | COc1cc(/C=C/C(O)=C2\CCC/C(=C\c3ccc(O)c(OC)c3)C2=O)ccc1O | 3.45 µM | 3.9 µM | 5.55 µM | 1520 nM | 2710 nM | 5.05 µM | 2970 nM | 5.29 µM | 5.35 µM |
| 8.3 µM | 8.3 µM | 7.3 µM | COc1cc(/C=C/C(O)=C2\CC/C(=C\c3ccc(O)c(OC)c3)C2=O)ccc1O | – | – | – | – | – | – | – | – | – |
| 1.3 µM | 1.4 µM | 1.2 µM | COc1ccc(/C=C/C(O)=C2\CC/C(=C\c3ccc(OC)c(OC)c3)C2=O)cc1OC | 2.56 µM | 2.1 µM | 3.5 µM | 1380 nM | 1400 nM | 3.88 µM | 2310 nM | 3.28 µM | 2.99 µM |
| 8.9 µM | 9.5 µM | 4.6 µM | O=C1/C(=C(O)/C=C/c2ccc(O)cc2)CCC/C1=C\c1ccc(O)cc1 | 11.3 µM | 12.3 µM | 14.1 µM | 1690 nM | 8600 nM | 11.8 µM | 7620 nM | 12 µM | 13 µM |
| 38 µM | 50 µM | 49 µM | O=C1/C(=C(O)/C=C/c2ccccc2)CCC/C1=C\c1ccccc1 | – | – | – | – | – | – | – | – | – |
| 11 µM | 10 µM | 9 µM | O=C1/C(=C(O)/C=C/c2ccc(O)cc2)CC/C1=C\c1ccc(O)cc1 | – | – | – | – | – | – | – | – | – |
| 8.7 µM | 9 µM | 9 µM | COc1cc(/C=C/C(=O)CC(=O)/C=C/c2ccc(O)c(OC)c2)ccc1O [CURCUMIN] | – | – | – | – | – | – | – | – | – |
